{"source": "patent US20150368617A1", "about": "“METHOD FOR FORMING ENDOTHELIAL CELLS” (Korea Advanced Institute of Science and Technology (KAIST), priority 2012, published 2015)", "tested_on": "Flk1+ MPCs", "assay": "Differentiation and expansion of ECs from Flk1+ MPCs in feeder cell-free 2D Matrigel system, FACS of CD31+/CD144+ ECs", "format": "cell-based, mouse", "details": "for differentiation and expansion of ECs compared to control: Y27632 10 μM; for increase of CD31+/CD144+ EC population compared to Control: day 6.5, E14tg2a", "description": "E14tg2a ESC cell line was a generous gift from Dr. Jun K. Yamashita (Kyoto University), and R1 ESC cell line was purchased from American Type Cell Culture. Mouse iPSC derived from FVB strain was a generous gift from Drs. Hyun-Jai Cho and Hyo-Soo Kim (Seoul National University Hospital). To obtain Flk1+ MPCs, ESCs and iPSCs were cultured on 0.1% gelatin-coated plates at a density of 1-2×10^3 cells/cm^2 in differentiation medium [┌−minimal essential medium (Invitrogen) supplemented with 10% fetal bovine serum (FBS)] without leukemia inhibitory factor (LIF). At day 4.5, the Flk1+ MPCs were purified by AutoMACS™Pro Separator (Miltenyi Biotec) with biotin-conjugated anti-mouse Flk1 antibody (clone AVAS12a1, eBioscience) and streptavidin MicroBeads (Miltenyi Biotec). The Flk1+MPCs were then subsequently plated onto Matrigel (BD Biosciences)-coated plates at a density of 1˜2×10^4 cells/cm^2, and were cultured in differentiation medium supplemented with VEGF-A165 (50 ng/ml, Peprotech). To purify the ECs from the differentiating Flk1+ cells, the cells were first dissociated and resuspended in HBSS/2% FBS, and were serially incubated with anti-mouse ICAM2 antibody (rat monoclonal, clone 3C4, Biolegend) for 10 min and with anti-rat IgG Microbead (Miltenyi Biotec) for 15 min. […] VEGF-Trap was prepared as previously described. Various signaling inhibitors and activators including SB203580, PD98059, KT5720, Go6976, KT5823, LY294002, rapamycin, Y27632, SB431542, Rho-kinase inhibitor (RKI; H-1152, isoquinolinesulfonamide), and Rho-kinase inhibitor II (RKI-II; pyridyl urea) were purchased from Calbiochem and Sigma-Aldrich.\nCells were harvested with 0.25% trypsin-EDTA (Invitrogen) or dissociation buffer (Invitrogen) and resuspended in HBSS/2% FBS at 1×10^6 cells per 100┌ l. The cells were incubated for 20 min with the following antibodies: biotin-conjugated anti-mouse Flk1 (clone AVAS12a1, eBioscience), allophycocyanin (APC)-conjugated anti-mouse CD140a (clone APA5, eBioscience), phycoerythrin(PE)-conjugated anti-mouse CD31 (clone 390, eBioscience), Alexa Fluor® 647-conjugated anti-mouse CD144 (clone BV13, eBioscience), PE-conjugated anti-mouse D114 (clone HMD4-1, Biolegend), PE-conjugated anti-mouse Tie2 (clone TEK4, eBioscience), PE-conjugated anti-mouse Endoglin (clone MJ7/18, Biolegend), anti-mouse ICAM2 (clone 3C4, Biolegend), APC-conjugated anti-mouse CD140b (clone APBS, eBioscience), PE-conjugated anti-mouse LYVE1 (clone ALY7, eBioscience), anti-mouse VEGFR3 (goat polyclonal, R&D systems), anti-mouse EphB4 (clone VEB4-7E4, Hycult biotech), and PE-conjugated anti-mouse Notch1 (clone HMN1-12, Biolegend). After washing in HBSS/2% FBS twice, the cells were incubated with the following secondary antibodies: PE-conjugated streptavidin (eBioscience), PE-conjugated anti-rat IgG2a (eBioscience), and FITC-conjugated anti-goat IgG (Invitrogen). Dead cells were excluded by 7-aminoactinomycin D (7-AAD, Invitrogen).\nFlk1+ MPCs derived from mouse ESCs are capable of differentiating into ECs, hematopoietic cells, mural cells (MCs), and cardiomyocytes. To avoid cell contamination from using feeder cells for differentiation of Flk1+ MPCs, we have established a feeder cell-free 2D Matrigel system (FIG. 1A). Flk1+ MPCs were differentiated from E14tg2a ESC cell line, and when the Flk1+ MPCs were purified at day 4.5 and cultured on Matrigel-coated plates in the differentiation medium, colonies of CD144+ ECs surrounded by ┌ SMA+MCs were formed (FIG. 1B). At day 6.5, population of CD144+/CD31+ ECs grown in differentiation medium was ˜4%, whereas the same EC population was increased up to ˜20% when VEGF-A (50 ng/ml) was supplemented (FIG. 1C). For following experiments, we chose to use 50 ng/ml of VEGF-A (hereafter referred to as VEGF-A) based on its maximal effect on differentiation and expansion of ECs from Flk1+ MPCs.", "data": [{"smiles": "C[C@@H](N)[C@H]1CC[C@H](C(=O)Nc2ccncc2)CC1", "note": "[Y27632]", "values": [{"measurement": "total number of CD31+/CD144+ ECs from Flk1+ MPCs", "setting": "10 μM Y27632 plus VEGF-A compared to only VEGF-A (Control)", "value": "~4.2", "unit": "fold"}, {"measurement": "percentage of EC population compared to control", "setting": "48 hrs after removal of the non-adherent cells at 6 hrs", "value": 1.4, "unit": "fold"}, {"measurement": "differentiation and expansion of ECs compared to control", "setting": "R1 ESC cell line", "value": 1.6, "unit": "fold"}, {"measurement": "increase of CD31+/CD144+ EC population compared to Control", "setting": "Y27632 1 μM with VEGF-A 50 ng/ml", "value": 1.8, "unit": "fold"}, {"measurement": "increase of CD31+/CD144+ EC population compared to Control", "setting": "Y27632 10 μM with VEGF-A 50 ng/ml", "value": 4.1, "unit": "fold"}, {"measurement": "differentiation and expansion of ECs compared to control", "setting": "iPSC", "value": 5.9, "unit": "fold"}, {"measurement": "percentage of EC population and total cell number, dose-dependent", "setting": "various concentrations of Y27632 with VEGF-A", "value": "increased"}]}]}
